Assay results as given in PMC6941823, “A dispensable paralog of succinate dehydrogenase subunit C mediates standing resistance towards a subclass of SDHI fungicides in Zymoseptoria tritici” (PLoS Pathogens, 2019).

Assays:
[1] = target: altC-SQR (altC) of D024 SDHC1 KO mitochondria (Zymoseptoria tritici, UniProt A0A1X7RQW2+F9X9V6+O42772); experiment: Succinate-quinone (SQR) SDHI sensitivity assay on purified mitochondria, 06STD024 SDHC1 KO; type: biochemical; settings: for IC50: mitochondria of 06STD024 ZtSDHC1 deletion mutant (pure altC-SQR), mean of three ± SD
Procedure: (§1) Succinate-ubiquinone oxidoreductase (SQR) inhibition assays were performed on mitochondrial extracts from a panel of strains that were (i) either carrying a unique C-subunit encoding gene (ZtSDHC1, ZtSDHC1_A84I or Zt-SDHC3), or (ii) carrying two C-subunit encoding genes ZtSDHC1 and ZtSDHC3 (Table 1).
(§2) Biomass production, mitochondrial extraction and purification were performed as described in [14]. Succinate: ubiquinone/DCPIP sensitivity tests were performed as described in [14] with minor modification.

[2] = target: WT-SQR (SDHC), IPO323 mitochondria (Zymoseptoria tritici, UniProt F9X9V6+F9XH52+O42772); experiment: Succinate-quinone (SQR) SDHI sensitivity assay on purified mitochondria, IPO323; type: biochemical
Procedure: as §1
(§3) Biomass production, mitochondrial extraction and purification were performed as described in [14]. Succinate: ubiquinone/DCPIP sensitivity tests were performed as described in [14] with minor modification. The different mitochondrial suspensions were adjusted to similar initial velocity (1 OD595nm hour^-1) and inhibitor concentrations ranged between 0.047nM and 50μM with uniform 4x dilution steps (11 concentrations + DMSO control). Calculated absorbance slopes (OD/min) were used for IC50 calculations using GraphPad Prism 6.07 software non-linear curve fitting against log inhibitor concentrations.

[3] = test system: Zymoseptoria tritici isolates; experiment: Growth tests on solid agar at discriminatory fungicide concentrations; type: cell-based; settings: for Growth phenotype on SDHI-amended plate: AE agar, isofetamid 5 mg.L^-1, 10 DPI (procedure of Fig 6)
From the text: Fig 6 Resistance to SHA-SDHIs in Z. tritici EU populations. […] Sensitivity data are sorted by genotype according to the presence of the ZtSDHC3 gene. ** p value of 0.0029 in Welch’s corrected unpaired t-test. (B) Solid agar growth of a collection of 93 Z. tritici isolates sampled in 2009 (same set as above). Individual strains from this collection are boxed and numbered 1 to 93. Boxes A and B correspond to reference resistant strains 06STD024 and 07STGB009 respectively. Box C corresponds to IPO323 reference sensitive isolate. The yellow framed boxes correspond to strains carrying the ZtSDHC3 gene. Yellow arrow designates strain 09STIR20.1 (number 78) carrying a non-functional alt-SDHC (frameshift, S6 Table).
A large scale spotting assay of 96 isolates (Fig 6) was performed using the V&P 96 floating pin tool VP408FP6 (V&P Scientific), equipped with flat tip FP6 pins of 1.58 mm diameter (resulting in approx. 0.4 μl transfer volume). Source cultures for cell spotting were grown in 100 μl YPD liquid medium in a 96 well flat bottom plate (Corning, 3370) at 18°C for 11 days (average cell density of 3.5·10^6/ml), then diluted 1:2x in fresh YPD medium and incubated for another 1.5 h before transfer with the pin tool (approx. 700 cells per spot) onto AE agar with or without fungicide. Plates were incubated at 20°C in the dark for up to 18 days. Smaller scale spotting assays (Figs 4 and 8) were performed using 5 days V8-agar plates inoculums adjusted to 2.10^6 spores.mL^-1 in water and diluted in steps of 3. 2μL of spore suspension was spotted on the plates, and the plates were incubated shielded from light at 21°C for 6 days.

[4] = target: SQR (SDHC) of D024 SDHC3 KO mitochondria (Zymoseptoria tritici, UniProt F9X9V6+F9XH52+O42772); experiment: Succinate-quinone (SQR) SDHI sensitivity assay on purified mitochondria, 06STD024 SDHC3 KO; type: biochemical; settings: for RF (resistance factor), D024 SDHC3 KO (SDHC): IC50 ratio compared to IPO323 values; for IC50: mitochondria of 06STD024 ZtSDHC3 deletion mutant, mean of three ± SD
Procedure: as §1, §3

[5] = target: SQR of 06STD024 (SDHC / altC) mitochondria (Zymoseptoria tritici, UniProt A0A1X7RQW2+F9X9V6+F9XH52+O42772); experiment: Succinate-quinone (SQR) SDHI sensitivity assay on purified mitochondria, 06STD024; type: biochemical; settings: for IC50: mitochondria of field isolate 06STD024, mean of three ± SD
Procedure: as §1, §2

[6] = target: SQR (SDHC / altC) of IPO323 pTet::SDHC3 transformant, repressed (Zymoseptoria tritici, UniProt A0A1X7RQW2+F9X9V6+F9XH52+O42772); experiment: Succinate-quinone (SQR) SDHI sensitivity assay on purified mitochondria, IPO323 pTet::SDHC3 repressed; type: biochemical
Procedure: as §1, §2

[7] = test system: SQR (SDHC / altC) of IPO323 pTet::SDHC3 transformant, induced; experiment: Succinate-quinone (SQR) SDHI sensitivity assay on purified mitochondria, IPO323 pTet::SDHC3 induced; type: biochemical, Zymoseptoria tritici; settings: IPO323 pTet::SDHC3 transformant grown in the absence of doxycycline; mean of three ± SD
Procedure: as §1, §2

[8] = IC50 ratio compared to IPO323 values

Chain of SQR (SDHC) of D024 SDHC3 KO mitochondria (F9XH52 44-187): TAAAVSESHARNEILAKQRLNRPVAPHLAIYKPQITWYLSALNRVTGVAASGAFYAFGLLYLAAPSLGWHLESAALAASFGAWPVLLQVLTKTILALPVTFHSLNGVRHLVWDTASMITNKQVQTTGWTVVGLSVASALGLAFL
Chain of SQR (SDHC) of D024 SDHC3 KO mitochondria (O42772 19-297): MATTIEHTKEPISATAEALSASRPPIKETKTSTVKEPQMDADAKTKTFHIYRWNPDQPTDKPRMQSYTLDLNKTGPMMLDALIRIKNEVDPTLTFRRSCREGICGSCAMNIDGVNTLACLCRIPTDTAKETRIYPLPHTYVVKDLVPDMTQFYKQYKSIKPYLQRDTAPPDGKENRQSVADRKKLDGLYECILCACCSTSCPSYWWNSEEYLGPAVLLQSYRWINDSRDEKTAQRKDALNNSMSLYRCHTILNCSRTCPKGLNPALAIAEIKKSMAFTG
Chain of SQR (SDHC) of D024 SDHC3 KO mitochondria (F9X9V6 1-193): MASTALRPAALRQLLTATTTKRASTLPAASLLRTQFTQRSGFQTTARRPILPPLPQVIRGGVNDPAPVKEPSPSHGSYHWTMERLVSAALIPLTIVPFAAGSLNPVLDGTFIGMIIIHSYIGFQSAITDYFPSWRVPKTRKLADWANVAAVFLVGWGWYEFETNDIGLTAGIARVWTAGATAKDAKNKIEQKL
Chain of SQR (SDHC) of D024 SDHC3 KO mitochondria (F9WWR1 29-643 partner): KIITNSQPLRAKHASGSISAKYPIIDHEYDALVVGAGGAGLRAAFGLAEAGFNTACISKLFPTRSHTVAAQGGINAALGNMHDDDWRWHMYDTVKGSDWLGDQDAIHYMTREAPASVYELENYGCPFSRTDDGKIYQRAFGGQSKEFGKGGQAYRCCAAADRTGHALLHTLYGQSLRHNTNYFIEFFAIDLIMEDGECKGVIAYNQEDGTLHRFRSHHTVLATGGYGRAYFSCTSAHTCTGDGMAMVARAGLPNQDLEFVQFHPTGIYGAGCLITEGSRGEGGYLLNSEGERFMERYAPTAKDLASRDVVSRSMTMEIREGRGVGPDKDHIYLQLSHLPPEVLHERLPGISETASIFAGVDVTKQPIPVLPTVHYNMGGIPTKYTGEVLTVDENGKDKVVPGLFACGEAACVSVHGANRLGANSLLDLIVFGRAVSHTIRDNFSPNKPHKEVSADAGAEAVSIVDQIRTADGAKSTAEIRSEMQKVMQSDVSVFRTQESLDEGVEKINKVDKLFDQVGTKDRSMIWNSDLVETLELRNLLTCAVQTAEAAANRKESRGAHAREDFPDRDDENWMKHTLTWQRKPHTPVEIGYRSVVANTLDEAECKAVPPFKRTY
Chain of SQR of 06STD024 (SDHC / altC) mitochondria (A0A1X7RQW2 36-181): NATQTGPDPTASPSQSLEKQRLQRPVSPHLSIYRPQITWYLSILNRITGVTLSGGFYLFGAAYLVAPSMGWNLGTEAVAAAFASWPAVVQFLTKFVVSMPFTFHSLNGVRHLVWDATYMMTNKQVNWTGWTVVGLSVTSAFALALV
Chain of SQR of 06STD024 (SDHC / altC) mitochondria (O42772 19-297): as the sequence (O42772 19-297) above
Chain of SQR of 06STD024 (SDHC / altC) mitochondria (F9X9V6 1-193): as the sequence (F9X9V6 1-193) above
Chain of SQR of 06STD024 (SDHC / altC) mitochondria (F9XH52 44-187): as the sequence (F9XH52 44-187) above
Chain of SQR of 06STD024 (SDHC / altC) mitochondria (F9WWR1 29-643 partner): as the sequence (F9WWR1 29-643 partner) above
Chain of altC-SQR (altC) of D024 SDHC1 KO mitochondria (A0A1X7RQW2 36-181): as the sequence (A0A1X7RQW2 36-181) above
Chain of altC-SQR (altC) of D024 SDHC1 KO mitochondria (O42772 20-297): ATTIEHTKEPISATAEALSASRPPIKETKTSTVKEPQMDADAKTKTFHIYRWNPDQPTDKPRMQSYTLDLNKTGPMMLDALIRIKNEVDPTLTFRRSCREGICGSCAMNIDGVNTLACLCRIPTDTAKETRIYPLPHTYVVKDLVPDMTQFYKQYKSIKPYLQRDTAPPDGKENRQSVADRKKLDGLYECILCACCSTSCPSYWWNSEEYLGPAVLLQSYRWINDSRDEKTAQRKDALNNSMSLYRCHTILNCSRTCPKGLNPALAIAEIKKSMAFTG
Chain of altC-SQR (altC) of D024 SDHC1 KO mitochondria (F9X9V6 1-193): as the sequence (F9X9V6 1-193) above
Chain of altC-SQR (altC) of D024 SDHC1 KO mitochondria (F9WWR1 41-643 partner): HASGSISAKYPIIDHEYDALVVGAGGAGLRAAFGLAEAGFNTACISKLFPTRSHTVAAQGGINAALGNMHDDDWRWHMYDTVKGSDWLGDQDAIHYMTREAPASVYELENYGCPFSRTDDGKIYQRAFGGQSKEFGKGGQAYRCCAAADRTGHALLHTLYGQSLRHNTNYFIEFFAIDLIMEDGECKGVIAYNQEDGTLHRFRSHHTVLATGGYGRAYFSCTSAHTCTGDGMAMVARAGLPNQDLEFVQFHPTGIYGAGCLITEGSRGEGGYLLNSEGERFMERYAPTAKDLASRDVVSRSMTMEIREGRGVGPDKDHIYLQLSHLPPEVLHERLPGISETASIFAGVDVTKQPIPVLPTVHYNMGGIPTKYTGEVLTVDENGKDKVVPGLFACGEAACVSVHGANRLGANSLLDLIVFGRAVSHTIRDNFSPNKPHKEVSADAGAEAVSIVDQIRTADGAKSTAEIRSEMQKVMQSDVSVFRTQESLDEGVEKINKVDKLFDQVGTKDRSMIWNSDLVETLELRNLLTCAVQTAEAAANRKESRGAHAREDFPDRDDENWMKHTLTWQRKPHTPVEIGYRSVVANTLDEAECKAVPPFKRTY

## Cc1cc(OC(C)C)ccc1C(=O)C(C)(C)NC(=O)c1sccc1C [Isofetamid]
[1]
  IC50: > 50000 nM
[2]
  IC50: 0.9 ± 0.1 nM
[3]; isolate 09STIR20.1 (ZtSDHC3 frameshift), 10 DPI, 5 mg.L^-1
  Growth on isofetamid-supplemented agar plate: did not grow
[3]; strain 06STD024
  Growth phenotype on SDHI-amended plate: Very strong
[3]; strain 07STGB009
  Growth phenotype on SDHI-amended plate: Very strong
[3]; strain 09STD041
  Growth phenotype on SDHI-amended plate: Strong
[3]; strain 09STD053
  Growth phenotype on SDHI-amended plate: Strong
[3]; strain 09STF011
  Growth phenotype on SDHI-amended plate: Strong
[3]; strain 09STF037
  Growth phenotype on SDHI-amended plate: Weak
[3]; strain 09STF112
  Growth phenotype on SDHI-amended plate: Strong
[3]; strain 09STIR20.3
  Growth phenotype on SDHI-amended plate: Weak
[3]; strain IPO323
  Growth phenotype on SDHI-amended plate: No
[3]; strain IPO94269
  Growth phenotype on SDHI-amended plate: No

## CON(C(=O)c1cn(C)nc1C(F)F)[C@@H](C)Cc1ccc(Cl)cc1Cl [Compound 3]
[1]
  IC50: 22.7 ± 0.8 nM
[4]
  RF (resistance factor), D024 SDHC3 KO (SDHC): 1.2
  IC50: 0.8 ± 0.13 nM
[2]
  IC50: 0.7 ± 0.2 nM
[5]
  IC50: 26.4 ± 1.2 nM

## CC(C)CC(C)c1sccc1NC(=O)c1cn(C)nc1C(F)(F)F (stereo not shown) [Penthiopyrad]
[1]; [8]
  RF (resistance factor), D024 SDHC1 KO (altC): 1.2
[1]
  IC50: 1.6 ± 0.7 nM
[4]
  RF (resistance factor), D024 SDHC3 KO (SDHC): 1.1
  IC50: 1.5 ± 0.3 nM
[2]
  IC50: 1.4 ± 0.3 nM
[6]; [8]
  RF (resistance factor), pTet Repressed (SDHC / altC): 1.4
[6]; IPO323 pTet::SDHC3 transformant grown in presence of 30 mg.L^-1 doxycycline, mean of three ± SD
  IC50: 1.9 ± 0.4 nM
[7]
  IC50: 1.8 ± 0.1 nM
[5]; [8]
  RF (resistance factor), 06STD024 (SDHC / altC): 1.4
[5]
  IC50: 2 ± 0.8 nM
